{
  "source": "patent US20240279338A1",
  "about": "“Combination Treatment of Cancer” (Ares Trading S.A., priority 2021, published 2024)",
  "origin": "cited, not measured here",
  "target": "T1, A3 receptor (Homo sapiens, UniProt P0DMS8)",
  "T1 sequence (P0DMS8 1-318)": "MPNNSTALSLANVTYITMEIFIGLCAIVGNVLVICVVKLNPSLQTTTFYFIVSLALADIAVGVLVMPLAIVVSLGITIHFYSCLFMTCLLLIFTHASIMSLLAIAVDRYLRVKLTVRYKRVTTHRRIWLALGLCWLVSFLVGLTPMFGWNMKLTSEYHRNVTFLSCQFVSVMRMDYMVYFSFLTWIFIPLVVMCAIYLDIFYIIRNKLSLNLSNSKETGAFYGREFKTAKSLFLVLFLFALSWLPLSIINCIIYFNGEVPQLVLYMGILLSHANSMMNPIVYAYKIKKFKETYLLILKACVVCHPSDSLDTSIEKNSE",
  "settings": "cited from earlier work",
  "data": [
    {"smiles": "Nc1ncnc2c1ncn2[C@@H]1O[C@H](CO)[C@@H](O)[C@H]1O", "note": "[adenosine]", "values": [
      {"measurement": "adenosine sensitivity (affinity) of receptor", "result": 100, "unit": "nM"}
    ]}
  ]
}
